PubChem BioAssay (NCI)
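Dose response: 5 concentrations. Exposure: 48 h. Format: 96-well plates. Endpoint: linear interpolation; highest concentration if not reached. GI50 marks 50% less growth. TGI marks complete inhibition of growth.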

Columns and labels:
Assay in all cases: growth of human tumour cells (NCI), 48 h
[1] = tested on: UO-31 renal
[2] = tested on: NCI-H522 lung
[3] = tested on: RXF 393 renal
[4] = tested on: OVCAR-4 ovarian
[5] = tested on: A549 NSCLC
[6] = tested on: PC-3 prostate
[7] = tested on: UACC-257 melanoma
[8] = tested on: HL-60(TB) leukemia
[9] = tested on: SK-MEL-2 melanoma
[10] = tested on: U251 CNS
[11] = tested on: UACC-62 melanoma
[12] = tested on: CAKI-1 renal
[13] = tested on: RPMI-8226 leukemia
[14] = tested on: IGROV1 ovarian
[15] = tested on: HT29 colon
[16] = tested on: COLO 205 colon
[17] = tested on: OVCAR-5 ovarian
[18] = tested on: OVCAR-3 ovarian
[19] = tested on: MDA-MB-435
[20] = tested on: HCT-116 colon
[21] = tested on: ACHN renal
[22] = tested on: SN12C renal
[23] = tested on: OVCAR-8 ovarian
[24] = tested on: HOP-92 NSCLC
[25] = tested on: SNB-19 CNS
[26] = tested on: CCRF-CEM leukemia
[27] = tested on: HS 578T breast
[28] = tested on: SR leukemia
[29] = tested on: SK-MEL-5 melanoma
[30] = tested on: SK-MEL-28 melanoma
[31] = tested on: 786-0 renal
[32] = tested on: HOP-62 NSCLC
[33] = tested on: MOLT-4 leukemia
[34] = tested on: KM12 colon
[35] = tested on: SF-539 CNS
[36] = tested on: A498 renal
[37] = tested on: NCI-H226 lung
[38] = tested on: NCI-H460 lung
[39] = tested on: DU-145 prostate
[40] = tested on: SW-620 colon
[41] = tested on: MALME-3M melanoma
[42] = tested on: TK-10 renal
[43] = tested on: SK-OV-3 ovarian
[44] = tested on: SF-295 CNS
[45] = tested on: MDA-MB-231 breast
[46] = tested on: M14 melanoma
[47] = tested on: NCI-H23 lung
[48] = tested on: SF-268 CNS
[49] = tested on: EKVX NSCLC
[50] = tested on: K-562 leukemia
[51] = tested on: BT-549 breast
[52] = tested on: HCT-15 colon
[53] = tested on: T-47D breast
[54] = tested on: NCI/ADR-RES ovarian
[55] = tested on: HCC-2998 colon
[56] = tested on: MCF7 breast

Compound `CC1(C)C=CC[C@]2(C)[C@H]3CC[C@@H]4[C@H]5[C@H](C(=O)/C=C/c6cccnc6)CC[C@]5(CO)CC[C@@]4(C)[C@]3(C)CC[C@@H]12` has a GI50 [1] of 1210 nM, a TGI [1] of 2450 nM and a GI50 [2] of 1190 nM. The TGI [2] was 2740 nM, the GI50 [3] was 1120 nM and the TGI [3] was 2370 nM. It also gave a GI50 [4] of 1470 nM, a TGI [4] of 3410 nM and a GI50 [5] of 972 nM. For the same compound, the TGI [5] was 2490 nM, the GI50 [6] was 505 nM and the TGI [6] was 1910 nM. It also gave a GI50 [7] of 1390 nM, a TGI [7] of 2910 nM and a GI50 [8] of 304 nM. The TGI [8] was 1890 nM, the GI50 [9] was 1280 nM and the TGI [9] was 2760 nM. The GI50 [10] was 1240 nM, the TGI [10] was 2650 nM and the GI50 [11] was 1230 nM. It also gave a TGI [11] of 2550 nM, a GI50 [12] of 1060 nM and a TGI [12] of 2330 nM. For the same compound, the GI50 [13] was 843 nM, the TGI [13] was 5350 nM and the GI50 [14] was 1310 nM. The TGI [14] was 2770 nM, the GI50 [15] was 1230 nM and the TGI [15] was 2680 nM. It also gave a GI50 [16] of 1690 nM, a TGI [16] of 3690 nM and a GI50 [17] of 1320 nM. For the same compound, the TGI [17] was 2830 nM, the GI50 [18] was 1370 nM and the TGI [18] was 2710 nM. It also gave a GI50 [19] of 1320 nM, a TGI [19] of 2640 nM and a GI50 [20] of 1050 nM. The TGI [20] was 2320 nM, the GI50 [21] was 1140 nM and the TGI [21] was 2350 nM. It also gave a GI50 [22] of 1070 nM, a TGI [22] of 2450 nM and a GI50 [23] of 666 nM. It also gave a TGI [23] of 3220 nM, a GI50 [24] of 660 nM and a TGI [24] of 2050 nM. The GI50 [25] was 1490 nM, the TGI [25] was 2840 nM and the GI50 [26] was 560 nM. The TGI [26] was 5340 nM, the GI50 [27] was 1510 nM and the TGI [27] was 3890 nM. For the same compound, the GI50 [28] was 631 nM, the TGI [28] was 3700 nM and the GI50 [29] was 1460 nM. It also gave a TGI [29] of 2790 nM, a GI50 [30] of 1540 nM and a TGI [30] of 2980 nM. It also gave a GI50 [31] of 1640 nM, a TGI [31] of 3150 nM and a GI50 [32] of 1540 nM. For the same compound, the TGI [32] was 3110 nM, the GI50 [33] was 539 nM and the TGI [33] was 2940 nM. The GI50 [34] was 1010 nM, the TGI [34] was 2420 nM and the GI50 [35] was 1500 nM. The TGI [35] was 2870 nM, the GI50 [36] was 1370 nM and the TGI [36] was 2720 nM. It also gave a GI50 [37] of 1330 nM, a TGI [37] of 3080 nM and a GI50 [38] of 1030 nM. The TGI [38] was 2410 nM, the GI50 [39] was 1360 nM and the TGI [39] was 2690 nM. For the same compound, the GI50 [40] was 1000 nM, the TGI [40] was 2310 nM and the GI50 [41] was 1380 nM. For the same compound, the TGI [41] was 2800 nM, the GI50 [42] was 1810 nM and the TGI [42] was 3260 nM. It also gave a GI50 [43] of 1780 nM, a TGI [43] of 3620 nM and a GI50 [44] of 1150 nM. It also gave a TGI [44] of 2420 nM, a GI50 [45] of 1270 nM and a TGI [45] of 2670 nM.

Compound `O=c1cc(-c2ccccc2)[nH]c2cccc(S)c12` has a TGI [3] of 469 nM, a TGI [4] greater than 100000 nM and a TGI [46] greater than 100000 nM. For the same compound, the TGI [47] was greater than 100000 nM, the TGI [5] was greater than 100000 nM and the TGI [6] was greater than 100000 nM. The TGI [7] was greater than 100000 nM, the TGI [8] was greater than 100000 nM and the TGI [10] was 11400 nM. The TGI [11] was greater than 100000 nM, the TGI [13] was greater than 100000 nM and the TGI [14] was greater than 100000 nM. The TGI [16] was 19200 nM, the TGI [17] was greater than 100000 nM and the TGI [18] was greater than 100000 nM. For the same compound, the TGI [48] was greater than 100000 nM, the TGI [20] was greater than 100000 nM and the TGI [21] was greater than 100000 nM. The TGI [22] was greater than 100000 nM, the TGI [23] was 2370 nM and the TGI [24] was greater than 100000 nM. It also gave a TGI [25] greater than 100000 nM, a TGI [49] greater than 100000 nM and a TGI [26] greater than 100000 nM. It also gave a TGI [50] greater than 100000 nM, a TGI [51] greater than 100000 nM and a TGI [27] greater than 100000 nM. For the same compound, the TGI [28] was greater than 100000 nM, the TGI [29] was greater than 100000 nM and the TGI [52] was greater than 100000 nM. The TGI [30] was greater than 100000 nM, the TGI [31] was greater than 100000 nM and the TGI [32] was greater than 100000 nM. The TGI [33] was greater than 100000 nM, the TGI [34] was greater than 100000 nM and the TGI [53] was greater than 100000 nM. It also gave a TGI [35] of 594 nM, a TGI [37] of 98700 nM and a TGI [38] greater than 100000 nM. The TGI [54] was 236 nM, the TGI [39] was greater than 100000 nM and the TGI [40] was greater than 100000 nM. For the same compound, the TGI [55] was 4000 nM, the TGI [41] was greater than 100000 nM and the TGI [56] was greater than 100000 nM. The TGI [43] was 26100 nM and the TGI [44] was 389 nM.
